The values that follow are results of earlier work, collected in patent US11839654B2, “Combination therapy” (Eli Lilly and Company, priority 2018, dated 2023).

SMILES strings stand for the structures.

The subject of data set [1] is JNPL3 tau mouse model. The settings on record: Yuzwa et al. 2012; cited from earlier work.
Data set [2] deals with Tg4510 tau mouse model. The settings on record: Graham et al. 2014; cited from earlier work.

Take `CCN=C1N[C@@H]2[C@@H](O)[C@H](O)[C@@H](CO)O[C@@H]2S1` [Thiamet-G]: in data set [1], the “effect on motor neuron loss” value is “slowing motor neuron loss”. For the same compound, in data set [2], the “effect on tau pathology and dystrophic neurites” value was “reduction in tau pathology and dystrophic neurites”.
